Holding throughout (type): functional
For assay [1], the system named is Mycobacterium tuberculosis. The assay can be described thus: Potency index, ratio of rifampicin MIC to test compound MIC for antimycobacterial activity against Mycobacterium tuberculosis H37Rv assessed as bacterial growth inhibition by broth microdilution assay. A general note: Broth dilution looks for growth in wells or tubes with falling amounts of substance.

In assay [2] the test system is Staphylococcus aureus. The assay can be described thus: Antibacterial activity against Staphylococcus aureus assessed as bacterial growth inhibition by broth microdilution assay.
Assay [3] relates to Mycobacterium tuberculosis. The assay can be described thus: Antimycobacterial activity against Mycobacterium tuberculosis H37Rv assessed as bacterial growth inhibition by broth microdilution assay.
The subject of assay [4] is Staphylococcus aureus. Put plainly: Potency index, ratio of ciprofloxacin MIC to test compound MIC for antimicrobial activity against Staphylococcus aureus assessed as bacterial growth inhibition by agar cup diffusion assay.
Assay [5] has as its system Mycobacterium tuberculosis. The assay can be described thus: Potency index, ratio of isoniazid MIC to test compound MIC for antimycobacterial activity against Mycobacterium tuberculosis H37Rv assessed as bacterial growth inhibition by broth microdilution assay.
Assay [6] has as its system Staphylococcus aureus. Put plainly: Antibacterial activity against methicillin sensitive Staphylococcus aureus assessed as bacterial growth inhibition measured after 18 to 24 hrs by two fold serial dilution assay. The following applies: time 18-24 hrs.
The subject of assay [7] is Escherichia coli. The assay can be described thus: Antibacterial activity against Escherichia coli ATCC35218 assessed as bacterial growth inhibition measured after 18 to 24 hrs inhibition by broth microdilution assay. To be noted: time 18-24 hrs.
Assay [8] has as its system Pseudomonas aeruginosa. The assay can be described thus: Antibacterial activity against Pseudomonas aeruginosa assessed as bacterial growth inhibition measured after 18 to 24 hrs by two fold serial dilution assay. To be noted: time 18-24 hrs.
Assay [9] relates to Pseudomonas aeruginosa. Put plainly: Antibacterial activity against Pseudomonas aeruginosa assessed as bacterial growth inhibition by broth microdilution assay.
The next assay concerns Klebsiella pneumoniae. Put plainly: Antibacterial activity against Klebsiella pneumoniae assessed as bacterial growth inhibition measured after 18 to 24 hrs by two fold serial dilution assay. To be noted: time 18-24 hrs.
The test system of assay [10] is Escherichia coli. Put plainly: Antibacterial activity against Escherichia coli assessed as bacterial growth inhibition measured after 18 to 24 hrs by two fold serial dilution assay. To be noted: time 18-24 hrs.
For assay [11], the system named is Staphylococcus aureus. The assay can be described thus: Antibacterial activity against ciprofloxacin resistant Staphylococcus aureus assessed as bacterial growth inhibition by broth microdilution assay.
The test system of assay [12] is Staphylococcus aureus. The assay can be described thus: Antibacterial activity against methicillin resistant Staphylococcus aureus assessed as bacterial growth inhibition by microdilution assay.
The test system of assay [13] is Pseudomonas aeruginosa. Put plainly: Potency index, ratio of ampicillin MIC to test compound MIC for antimicrobial activity against Pseudomonas aeruginosa assessed as bacterial growth inhibition by broth microdilution assay.
In assay [14] the test system is Staphylococcus aureus. The assay can be described thus: Potency index, ratio of ampicillin MIC to test compound MIC for antimicrobial activity against Staphylococcus aureus assessed as bacterial growth inhibition by broth microdilution assay.
The test system of assay [15] is Escherichia coli. Put plainly: Antibacterial activity against Escherichia coli assessed as bacterial growth inhibition by broth microdilution assay.
Assay [16] has as its system Escherichia coli. The assay can be described thus: Potency index, ratio of ampicillin MIC to test compound MIC for antimicrobial activity against Escherichia coli assessed as bacterial growth inhibition by broth microdilution assay.

From ChEMBL document CHEMBL5360532, “Current scenario of quinolone hybrids with potential antibacterial activity against ESKAPE pathogens” (Eur J Med Chem, 2023) come the findings set out here.

SMILES strings stand for the structures. In brackets after ≈: the same amount, converted by molar mass. Bounds are passed on as bounds.

In the case of `O=C(CSc1nnc(N2CCN(c3cc4c(cc3F)c(=O)c(C(=O)O)cn4C3CC3)CC2)s1)c1ccc([N+](=O)[O-])cc1`, the Ratio in assay [1] was found to be 2; in the assay on Staphylococcus aureus [4], 2; in assay [5], 3. In addition, the MIC (as a rule, the lowest concentration found to suppress growth) in the assay with Staphylococcus aureus [2] was 1 µg/mL (≈ 1.64 µM); in assay [3] it was 0.5 µg/mL (≈ 0.819 µM).

In the case of `COc1c(N2C[C@H]3CCCN(C(=O)Cn4cc(CN5C(=O)C(=O)c6ccccc65)nn4)[C@H]3C2)c(F)cc2c(=O)c(C(=O)O)cn(C3CC3)c12`, the minimum inhibitory concentration (MIC) in the assay on Staphylococcus aureus [6], in the assay with Escherichia coli [7], in the assay on Pseudomonas aeruginosa [8], with Pseudomonas aeruginosa [9], in the assay with Klebsiella pneumoniae and with Escherichia coli [10] was no more than 0.03 µg/mL throughout.

Regarding `O=C1C(=O)N(Cc2cn(CC(=O)N3CCN(c4cc5c(cc4F)c(=O)c(C(=O)O)cn5C4CC4)CC3)nn2)c2ccc(F)cc21`, the MIC in the assay with Staphylococcus aureus [6], with Escherichia coli [7], with Pseudomonas aeruginosa [8], in the assay with Pseudomonas aeruginosa [9], with Klebsiella pneumoniae and with Escherichia coli [10] was no more than 0.03 µg/mL in each case.

On to `CCCCCC(=O)N(CCNCCNc1ccc(CN2CCN(c3cc4c(cc3F)CC(C(=O)O)=CN4C3CC3)CC2)cc1)CCN(CCN(CCN(CCN(CCN(CCN(CCN(CCN(CCN(CCN(CCN(CCN(CCN(CCN(CCN(CCN(CCN(CCN(CCN(CCN(CCN(CCN(CCN(CCN(CCN(CCN(CCN(CCN(CCN(CCN(CCNC(C)=O)C(C)=O)C(C)=O)C(C)=O)C(C)=O)C(C)=O)C(C)=O)C(C)=O)C(C)=O)C(C)=O)C(C)=O)C(C)=O)C(C)=O)C(C)=O)C(C)=O)C(C)=O)C(C)=O)C(C)=O)C(C)=O)C(C)=O)C(C)=O)C(C)=O)C(C)=O)C(C)=O)C(C)=O)C(C)=O)C(C)=O)C(C)=O)C(=O)CCCCC)C(=O)CCCCC)C(=O)CCCCC`, for which, in the assay on Staphylococcus aureus [11], the MIC came to 0.44 µg/mL (≈ 0.129 µM).

Consider `CCCCC(=O)N(CCNCCNc1ccc(CN2CCN(c3cc4c(cc3F)CC(C(=O)O)=CN4C3CC3)CC2)cc1)CCN(CCN(CCN(CCN(CCN(CCN(CCN(CCN(CCN(CCN(CCN(CCN(CCN(CCN(CCN(CCN(CCN(CCN(CCN(CCN(CCN(CCN(CCN(CCN(CCN(CCN(CCN(CCN(CCN(CCNC(C)=O)C(C)=O)C(C)=O)C(C)=O)C(C)=O)C(C)=O)C(C)=O)C(C)=O)C(C)=O)C(C)=O)C(C)=O)C(C)=O)C(C)=O)C(C)=O)C(C)=O)C(=O)CCCC)C(=O)CCCC)C(=O)CCCC)C(=O)CCCC)C(=O)CCCC)C(=O)CCCC)C(=O)CCCC)C(=O)CCCC)C(=O)CCCC)C(=O)CCCC)C(=O)CCCC)C(=O)CCCC)C(=O)CCCC)C(=O)CCCC)C(=O)CCCC`, for which the MIC in the assay on Staphylococcus aureus [11] was 0.62 µg/mL (≈ 0.164 µM).

As to `COP(=O)(OC)C(c1cc(C(C)(C)C)c(O)c(C(C)(C)C)c1)N1CCN(c2cc3c(cc2F)c(=O)c(C(=O)O)cn3C2CC2)CC1` (stereo unspecified), the MIC in the assay with Staphylococcus aureus [12] turned out to be 0.5 µg/mL.

Regarding `CCn1cc(C(=O)NN2C(=O)/C(=C/C=C/c3ccccc3)SC2=S)c(=O)c2cc(F)ccc21`, the Ratio in the assay on Pseudomonas aeruginosa [13], in the assay on Staphylococcus aureus [14] and in the assay with Escherichia coli [16] was greater than 10 throughout. Besides, the MIC with Escherichia coli [15], in the assay on Staphylococcus aureus [2] and with Pseudomonas aeruginosa [9] was less than 1 µg/mL in each case.
